Laboratory results published in patent US20050054531A1, “N-(phosphonomethyl) glycine (glyphosate) salt, a preparation process thereof, a concentrate composition and a phytotoxic formulation comprising it, and a method to combat weeds in a crop with a formulation thereto” (priority 2003, published 2005).
Entries after “also recorded” stand apart in the source; their conditions may differ.

What was measured:
[1] = tested on: jungle rice and Aleppo grass; test: Field observations on activity rate: control of jungle rice and Aleppo grass (Example 3); assay type: in vivo; parameters: key: beginning of the effect (BE); death of the plant (DP); without symptoms (WS); details: visual, 5,000 cm^3/ha (SQUADRON 24% 10,000)
Description: (§1) Products were applied on a plot with maize stubble, preparing it for sowing wheat, where most abundant weeds were Aleppo grass (Sorghum halepense), water grass, jungle rice (Echinochloa crusgalli, Echinochloa colonum), and Bermuda grass (Cynodon dactylon).
(§2) The assessment was performed visually on 3, 4, 5, 8, and 10 days after application for jungle rice, and Aleppo grass, and 4,7,10, and 14 days for Bermuda grass, where the obtained effects were recorded and identified as follows: beginning of the effect (BE), death of the plant (DP), and without symptoms (WS).

Bermuda grass [2] = test: Field observations on activity rate: control of Bermuda grass (Example 3); assay type: in vivo, Cynodon dactylon; parameters: key: beginning of the effect (BE); death of the plant (DP); without symptoms (WS); details: visual, 5,000 cm^3/ha (SQUADRON 24% 10,000)
Description: as §1, §2

[3] = tested on: Aleppo grass, Bermuda grass, Blite, Wild buckwheat, Nutgrass; test: Field comparison of salt, trunk mixture and Rondo on renovation ground prior to cane plantation (Example 4); assay type: in vivo; details: scale (1) out of control to (10) excellent control
Source text: APPLICATION: On renovation ground
TYPE OF TREATMENT: TOTAL (PRIOR TO CANE PLANTATION)
EXPERIMENTAL DESIGN: RANDOMIZED BLOCKS
VOLUME PER HECTARE: 120 liters

Aleppo grass = test: Weed control in apple culture (Example 5): Aleppo grass; assay type: in vivo, Sorghum halepensis; details: 4 l/ha (1,440 g/ha 100% acid)
Description: (§3) Observations: Only one dose of each product was tested in three repetitions, on areas of 2 m×8 m=16 m^2.

Bermuda grass [4] = test: Weed control in apple culture (Example 5): Bermuda grass; assay type: in vivo, Cynodon dactylon; details: 4 l/ha (1,440 g/ha 100% acid)
Description: as §3

Sunchillo (White aster) = test: Weed control in apple culture (Example 5): Sunchillo; assay type: in vivo, Wedelia glauca; details: 4 l/ha (1,440 g/ha 100% acid)
Description: as §3

Apple, Red Delicious = test: Phytotoxicity to the fruit tree (Example 5); assay type: in vivo; details: apple culture; 4 l/ha
Description: Variety: Hybrid. Red Delicious.
Phenologic status: with fruits of 2 cm diameter.
as §3

[5] = tested on: Blite, Pigweed, and Aleppo grass; test: Control of soy weeds (Example 6): Blite, Pigweed, and Aleppo grass; assay type: in vivo, Amaranthus quitensis, Chenopodium album, Sorghum halepense
Source text: (§4) OBJECTIVE: The subject of the present assay comprises the assessment of different Glyphosate formulations on annual and perennial weeds in a resistant soy crop.
(§5) Crop data were as follows: • Species: Soya • Variety: A-6443 • See-planting time: Second. • Preceding crop: Wheat • Density of seeds planted: 33 grains/m^2 • Density of grown plants: 28 pl/m^2 • Space between furrows: 0.52 m. • Culture system: Direct seed-planting. • Phenologic status on application: R-4/5
(§6) Random blocks design was used, with four repetitions per treatment. The size of the parcels were: 4 m wide per 15 m long (60 m^2), totaling 240 m^2 per treatment.
(§7) The product was applied with a carbon dioxide (CO2) hand backpack, provided with four tips separated by 0.50 m each, with a plain fan-type 110 O2 pastille. Applied volume was of 110 1/ha, at a pressure of 45 lb/cm^2
(§8) The assessments were carried out visually by comparison with control non-applied parcels, and at 5, 10, 15, and 25 days after the application date en each case, where the intervals between each application from the beginning of the treatment were 5, 5, and 10 days, respectively.
(§9) Variance analysis (ANOVA) and Duncan Test were performed with the results obtained, in order to detect mean differences.

[6] = tested on: Bermuda grass and Nutgrass; test: Control of soy weeds (Example 6): Bermuda grass and Nutgrass; assay type: in vivo, Cynodon dactylon, Cyperus rotundus
Source text: as §4, §5, §6, §7, §8, §9

Soya A-6443 = test: Phytotoxicity on the soy crop (Example 6); assay type: in vivo; details: 2,000 and 3,000 cm^2/ha; soy at R-4/5
Source text: as §4, §5, §7

[7] = stated in the formulation process; cited from earlier work
[8] = Glyphosate triazolamine salt 2,000 / Rondo 2,500 cm^2/ha
[9] = Glyphosate triazolamine salt 3,000 / Rondo 5,000 cm^2/ha

Molecule: 1H-1,2,4-triazole-3-yl-amine N-(phosphonomethyl)-glycine salt [Glyphosate triazolamine salt]
- Control of jungle rice and Aleppo grass, 3 DAYS ([1]; 3 days after application): BE
- Control of jungle rice and Aleppo grass, 4 DAYS ([1]; 4 days after application): BE
- Control of jungle rice and Aleppo grass, 5 DAYS ([1]; 5 days after application): DP
- Control of jungle rice and Aleppo grass, 8 DAYS ([1]; 8 days after application): DP
- Control of jungle rice and Aleppo grass, 10 DAYS ([1]; 10 days after application): DP
- Control of Bermuda grass, 4 DAYS (Bermuda grass [2]; 4 days after application): BE
- Control of Bermuda grass, 7 DAYS (Bermuda grass [2]; 7 days after application): BE
- Control of Bermuda grass, 10 DAYS (Bermuda grass [2]; 10 days after application): DP
- Control of Bermuda grass, 14 DAYS (Bermuda grass [2]; 14 days after application): DP
- ASSAY OBSERVATIONS, control, 5 DAYS ([3]; 3 liters/ha): 4
- ASSAY OBSERVATIONS, control, 15 DAYS ([3]; 3 liters/ha): 7
- ASSAY OBSERVATIONS, control, 30 DAYS ([3]; 3 liters/ha): 9
- ASSAY OBSERVATIONS, control, 5 DAYS ([3]; 4 liters/ha): 4
- ASSAY OBSERVATIONS, control, 15 DAYS ([3]; 4 liters/ha): 7
- ASSAY OBSERVATIONS, control, 30 DAYS ([3]; 4 liters/ha): 10
- COUNT, averages of blocks, A (Aleppo grass) (Aleppo grass; 38 days after application): 65
- COUNT, averages of blocks, A (Aleppo grass) (Aleppo grass; 51 days after application): 85
- COUNT, averages of blocks, A (Aleppo grass) (Aleppo grass; 99 days after application): 95
- COUNT, averages of blocks, B (Bermuda grass) (Bermuda grass [4]; 38 days after application): 70
- COUNT, averages of blocks, B (Bermuda grass) (Bermuda grass [4]; 51 days after application): 80
- COUNT, averages of blocks, B (Bermuda grass) (Bermuda grass [4]; 99 days after application): 90
- COUNT, averages of blocks, C (Sunchillo) (Sunchillo (White aster); 38 days after application): 75
- COUNT, averages of blocks, C (Sunchillo) (Sunchillo (White aster); 51 days after application): 90
- COUNT, averages of blocks, C (Sunchillo) (Sunchillo (White aster); 99 days after application): 98
- phytotoxicity to the fruit tree (Apple, Red Delicious): No phytotoxicity to the fruit tree was observed
- Control % after 5 DAYS, data average by assessment date [5, 8]: 58.33%
- Control % after 10 DAYS, data average by assessment date [5, 8]: 100.00%
- Control % after 15 DAYS, data average by assessment date [5, 8]: 100.00%
- Control % after 25 DAYS, data average by assessment date [5, 8]: 100.00%
- Control % after 5 days, I [5, 8]: 60%
- Control % after 5 days, II [5, 8]: 55%
- Control % after 5 days, III [5, 8]: 60%
- Control % after 5 days, MEAN [5, 8]: 58.33%
- Control % after 10 days, I [5, 8]: 100%
- Control % after 10 days, II [5, 8]: 100%
- Control % after 10 days, III [5, 8]: 100%
- Control % after 10 days, MEAN [5, 8]: 100.00%
- Control % after 15 days, I [5, 8]: 100%
- Control % after 15 days, II [5, 8]: 100%
- Control % after 15 days, III [5, 8]: 100%
- Control % after 15 days, MEAN [5, 8]: 100.00%
- Control % after 5 DAYS, data average by assessment date [5, 9]: 95.00%
- Control % after 10 DAYS, data average by assessment date [5, 9]: 100.00%
- Control % after 15 DAYS, data average by assessment date [5, 9]: 100.00%
- Control % after 25 DAYS, data average by assessment date [5, 9]: 100.00%
- Control % after 5 days, I [5, 9]: 100%
- Control % after 5 days, II [5, 9]: 90%
- Control % after 5 days, III [5, 9]: 95%
- Control % after 5 days, MEAN [5, 9]: 95.00%
- Control % after 10 days, I [5, 9]: 100%
- Control % after 10 days, II [5, 9]: 100%
- Control % after 10 days, III [5, 9]: 100%
- Control % after 10 days, MEAN [5, 9]: 100.00%
- Control % after 15 days, I [5, 9]: 100%
- Control % after 15 days, II [5, 9]: 100%
- Control % after 15 days, III [5, 9]: 100%
- Control % after 15 days, MEAN [5, 9]: 100.00%
- Control % after 10 days, I (TABLE NO. 4) [5, 8]: 100%
- Control % after 10 days, II (TABLE NO. 4) [5, 8]: 100%
- Control % after 10 days, III (TABLE NO. 4) [5, 8]: 100%
- Control % after 10 days, MEAN (TABLE NO. 4) [5, 8]: 100.00%
- Control % after 10 days, I (TABLE NO. 4) [5, 9]: 100%
- Control % after 10 days, II (TABLE NO. 4) [5, 9]: 100%
- Control % after 10 days, III (TABLE NO. 4) [5, 9]: 100%
- Control % after 10 days, MEAN (TABLE NO. 4) [5, 9]: 100.00%
- Control % after 5 days, I [6, 8]: 60%
- Control % after 5 days, II [6, 8]: 50%
- Control % after 5 days, III [6, 8]: 50%
- Control % after 5 days, MEAN [6, 8]: 53.00%
- Control % after 10 days, I [6, 8]: 75%
- Control % after 10 days, II [6, 8]: 90%
- Control % after 10 days, III [6, 8]: 90%
- Control % after 10 days, MEAN [6, 8]: 85.00%
- Control % after 15 days, I [6, 8]: 85%
- Control % after 15 days, II [6, 8]: 90%
- Control % after 15 days, III [6, 8]: 90%
- Control % after 15 days, MEAN [6, 8]: 88.33%
- Control % after 25 days, I [6, 8]: 85%
- Control % after 25 days, II [6, 8]: 90%
- Control % after 25 days, III [6, 8]: 90%
- Control % after 25 days, MEAN [6, 8]: 88.33%
- Control %, 5 DAYS, data average by assessment date [6, 8]: 53.33 B %
- Control %, 10 DAYS, data average by assessment date [6, 8]: 85.00 BC %
- Control %, 15 DAYS, data average by assessment date [6, 8]: 88.33 B %
- Control %, 25 DAYS, data average by assessment date [6, 8]: 83.33 B %
- Control % after 5 days, I [6, 9]: 70%
- Control % after 5 days, II [6, 9]: 80%
- Control % after 5 days, III [6, 9]: 75%
- Control % after 5 days, MEAN [6, 9]: 75.00%
- Control % after 10 days, I [6, 9]: 100%
- Control % after 10 days, II [6, 9]: 100%
- Control % after 10 days, III [6, 9]: 100%
- Control % after 10 days, MEAN [6, 9]: 100.00%
- Control % after 15 days, I [6, 9]: 100%
- Control % after 15 days, II [6, 9]: 100%
- Control % after 15 days, III [6, 9]: 100%
- Control % after 15 days, MEAN [6, 9]: 100.00%
- Control % after 25 days, I [6, 9]: 100%
- Control % after 25 days, II [6, 9]: 100%
- Control % after 25 days, III [6, 9]: 100%
- Control % after 25 days, MEAN [6, 9]: 100.00%
- Control %, 5 DAYS, data average by assessment date [6, 9]: 75.00 A %
- Control %, 10 DAYS, data average by assessment date [6, 9]: 100.00 A %
- Control %, 15 DAYS, data average by assessment date [6, 9]: 100.00 A %
- Control %, 25 DAYS, data average by assessment date [6, 9]: 100.00 A %
- final control over Bermuda grass and nutgrass ([6]; higher dosage treatments: Glyphosate triazolamine salt 3,000 / Rondo 5,000 cm^2/ha): total control
- phytotoxicity on soy leaves / soy crops (Soya A-6443): showed phytotoxicity problems on soy leaves; also recorded: showed phytotoxicity over soy crops

Molecule: O=C(O)CNCP(=O)(O)O [Glyphosate, N-(phosphonomethyl)-glycine]
- solubility in water (general statement) [7]: practically non-soluble in water

Molecule: Nc1nc[nH]n1 [triazolamine, 1H-1,2,4-triazol-3-yl-amine]
- solubility in water (general statement) [7]: quite soluble
